Holding throughout (assay): NCI anticancer screen, dose series, 48 h
The test system of assay [1] is SK-OV-3.
Assay [2] concerns SW-620.
Assay [3] concerns CCRF-CEM.
Assay [4] has as its system UACC-62.
Assay [5] has as its system SF-295.
In assay [6] the test system is HCT-15.
Assay [7] relates to KM12.
Assay [8] has as its system SR.
The subject of assay [9] is SN12C.
For assay [10], the system named is SK-MEL-5.
Assay [11] has as its system TK-10.
The test system of assay [12] is HOP-92.
The subject of assay [13] is CAKI-1.
Assay [14] has as its system COLO 205.
In assay [15] the test system is UACC-257.
The test system of assay [16] is RXF 393.
Assay [17] has as its system NCI-H23.
Assay [18] has as its system HCT-116.
For assay [19], the system named is HL-60.
Assay [20] deals with HT-29.

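How tested: cells in 96-well plates exposed to compound for 48 hours at five concentrations. The concentration for 50% growth inhibition is given as GI50.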 Calls of active or inactive are those of the source. Cut-off read from the data, not from the text of the source: active = GI50 up to about 1.1 µM and inactive = higher.

For the compound `COCCOCCOC1=C(Cl)C(=O)c2c(O)ccc(O)c2C1=O`, the GI50 in assay [1] is 19 µM (inactive); in [2] it was 0.287 µM (active); in assay [3], 0.414 µM (active); in assay [4] it was 1.63 µM (inactive); in assay [5] it was 11.7 µM (inactive); in assay [6], 1.61 µM. The GI50 is 12.8 µM (inactive) in assay [7]; 0.399 µM (active) in assay [8]; 1.89 µM (inactive) in assay [9]; 1.71 µM (inactive) in [10]; 1.52 µM (inactive) in assay [11]; 1.98 µM (inactive) in [12]. The GI50 is 1.27 µM (inactive) in assay [13]; 1.03 µM (active) in assay [14]; 1.99 µM (inactive) in assay [15]; 1.44 µM (inactive) in assay [16]; 2.48 µM (inactive) in assay [17]; 0.923 µM (active) in assay [18]. Further, the figures for the GI50 in assay [19] and in assay [20] were 0.207 µM (active) and 3.48 µM (inactive), respectively.

`COc1ccc2c(c1)[n+]([O-])c(/C(C)=N/NC(N)=S)c(C)[n+]2[O-]`: the GI50 was > 100 µM (inactive) in assay [1]; 50.4 µM (inactive) in [2]; 27.6 µM (inactive) in assay [3]; 44.8 µM (inactive) in assay [4]; 63.1 µM (inactive) in assay [5]; 45.6 µM in [6]. In addition, the GI50 was > 85.9 µM (inactive) in assay [7]; 2 µM (inactive) in assay [8]; 39.4 µM (inactive) in assay [9]; 41.2 µM (inactive) in [10]; > 58.9 µM (inactive) in assay [11]; > 85.9 µM (inactive) in [12]. Besides, the GI50 was 70.5 µM (inactive) in [13]; 38.8 µM (inactive) in assay [14]; > 60.3 µM (inactive) in assay [15]; > 72.9 µM (inactive) in assay [16]; > 67.9 µM (inactive) in assay [17]; 39.9 µM (inactive) in assay [18]. Moreover, the GI50 was 1.5 µM (inactive) in assay [19] and 52.1 µM (inactive) in assay [20].

Turning to `CC1=C[C@]2(O)C(=O)[C@H](C)C[C@H]3[C@@H](CC[C@@](C)(O)/C=C\2C1=O)C3(C)C`, the GI50 in assay [1] is > 56.8 µM (inactive); in assay [2], 19.4 µM (inactive); in assay [3], 24.8 µM (inactive); in assay [4], 16 µM (inactive); in assay [5] it was 24.5 µM (inactive); in assay [6] it was 17 µM. For the same compound, the GI50 was 34.7 µM (inactive) in assay [7]; 16 µM (inactive) in [8]; 20.3 µM (inactive) in [9]; 21.6 µM (inactive) in assay [10]; 32 µM (inactive) in assay [11]; 23 µM (inactive) in [12]. In addition, the GI50 in [13] is 25.4 µM (inactive); in assay [14] it was 16.7 µM (inactive); in assay [15], 17.4 µM (inactive); in assay [16], 15.4 µM (inactive); in [17] it was 25.6 µM (inactive); in [18], 17.2 µM (inactive). For the same compound, the GI50 is > 100 µM (inactive) in [19] and 28.4 µM (inactive) in assay [20].

For the compound `Cc1ccc2[nH]c3c(C)c4cc[n+](C)cc4c(C)c3c2c1`, the GI50 is 2.51 µM (inactive) in assay [1]; 0.374 µM (active) in [2]; 3.06 µM (inactive) in [3]; 2.68 µM (inactive) in assay [4]; 0.462 µM (active) in assay [5]; 14.1 µM in assay [6]. Also, the GI50 in assay [7] was 0.67 µM (active); in assay [8], 2.56 µM (inactive); in [9], 0.271 µM (active); in assay [10] it was 1.65 µM (inactive); in [11] it was 5.42 µM (inactive); in assay [12], 4.32 µM (inactive). The GI50 is 3.59 µM (inactive) in assay [13]; 0.828 µM (active) in assay [14]; 3.71 µM (inactive) in [15]; 1.42 µM (inactive) in assay [16]; 1.23 µM (inactive) in [17]; 1.36 µM (inactive) in assay [18]. For the same compound, the GI50 in assay [19] was 5.12 µM (inactive); in assay [20] it was 3.33 µM (inactive).

With `CC(=O)Oc1ccccc1/C=C/C(=O)/C=C/c1ccccc1OC(C)=O`, the GI50 in [1] was 4.15 µM (inactive); in assay [2] it was 0.447 µM (active); in assay [3], 0.501 µM (active); in assay [4], 1.64 µM (inactive); in [5] it was 2.26 µM (inactive); in [6], 2.09 µM. Also, the GI50 in assay [7] is 1.09 µM (active); in [8], 0.867 µM (active); in [9], 1.9 µM (inactive); in assay [10] it was 1.84 µM (inactive); in [11], 3.39 µM (inactive); in [12], 4.11 µM (inactive). Further, the GI50 was 3.75 µM (inactive) in [13]; 1.89 µM (inactive) in assay [14]; 1.36 µM (inactive) in [15]; 0.126 µM (active) in assay [16]; 1.73 µM (inactive) in [17]; 0.239 µM (active) in assay [18]. The results for the GI50 in assay [19] and in assay [20] were 0.748 µM (active) and 1.94 µM (inactive), respectively.

The values are drawn from ChEMBL document CHEMBL1201862, “PubChem BioAssay data set” (2004).
